According to the supplement of paper PMC10307832:

Experiments:
Experiment in all cases: relative viability (nuclei count vs DMSO), 5 days (fraction); higher = more cells survive
AZD6482 + Palbociclib = compound: Cc1cc([C@@H](C)Nc2ccccc2C(=O)O)c2nc(N3CCOCC3)cc(=O)n2c1 [AZD6482] + CC(=O)c1c(C)c2cnc(Nc3ccc(N4CCNCC4)cn3)nc2n(C2CCCC2)c1=O [Palbociclib] (partner 0.5 µM)
In short: (§1)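 Values are medians from duplicate plates. Each reflects relative viability, defined as the nuclei count of treated wells over that of vehicle wells. Lung cancer cell lines in 1536-well plates were pin-tool dosed one day after seeding with one drug alone or with a fixed anchor-drug dose plus five library-drug doses (not always all listed) in √10 steps, then fixed, stained and imaged at 4× after 5 days.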

AZD6482 + Alpelisib = compound: Cc1cc([C@@H](C)Nc2ccccc2C(=O)O)c2nc(N3CCOCC3)cc(=O)n2c1 [AZD6482] + Cc1nc(NC(=O)N2CCC[C@H]2C(N)=O)sc1-c1ccnc(C(C)(C)C(F)(F)F)c1 [Alpelisib] (partner 2 µM)
In short: as §1

AZD6482 + Phenformin = compound: Cc1cc([C@@H](C)Nc2ccccc2C(=O)O)c2nc(N3CCOCC3)cc(=O)n2c1 [AZD6482] + N=C(N)NC(=N)NCCc1ccccc1 [Phenformin] (partner 250 µM)
In short: as §1

AZD6482 + Tozasertib = compound: Cc1cc([C@@H](C)Nc2ccccc2C(=O)O)c2nc(N3CCOCC3)cc(=O)n2c1 [AZD6482] + Cc1cc(Nc2cc(N3CCN(C)CC3)nc(Sc3ccc(NC(=O)C4CC4)cc3)n2)n[nH]1 [Tozasertib] (partner 0.1 µM)
In short: as §1

Row | Cell Line | relative viability (AZD6482 + Palbociclib; first compound 0.08 µM) | relative viability (AZD6482 + Palbociclib; first compound 0.253 µM) | relative viability (AZD6482 + Palbociclib; first compound 0.8 µM) | relative viability (AZD6482 + Palbociclib; first compound 2.53 µM) | relative viability (AZD6482 + Palbociclib; first compound 8 µM) | relative viability (AZD6482 + Alpelisib; first compound 0.08 µM) | relative viability (AZD6482 + Alpelisib; first compound 0.253 µM) | relative viability (AZD6482 + Alpelisib; first compound 0.8 µM) | relative viability (AZD6482 + Alpelisib; first compound 2.53 µM) | relative viability (AZD6482 + Alpelisib; first compound 8 µM) | relative viability (AZD6482 + Phenformin; first compound 0.08 µM) | relative viability (AZD6482 + Phenformin; first compound 0.253 µM) | relative viability (AZD6482 + Phenformin; first compound 0.8 µM) | relative viability (AZD6482 + Phenformin; first compound 2.53 µM) | relative viability (AZD6482 + Phenformin; first compound 8 µM) | relative viability (AZD6482 + Tozasertib; first compound 0.08 µM) | relative viability (AZD6482 + Tozasertib; first compound 0.253 µM) | relative viability (AZD6482 + Tozasertib; first compound 0.8 µM) | relative viability (AZD6482 + Tozasertib; first compound 2.53 µM) | relative viability (AZD6482 + Tozasertib; first compound 8 µM)
1 | NCI-H1666 | 0.637 | 0.576 | 0.722 | 0.638 | 0.681 | 0.609 | 0.748 | 0.751 | 0.64 | 0.738 | 0.532 | 0.548 | 0.582 | 0.525 | 0.577 | 0.544 | 0.701 | 0.592 | 0.554 | 0.648
2 | NCI-H1734 | 0.301 | 0.333 | 0.346 | 0.298 | 0.272 | 0.416 | 0.444 | 0.431 | 0.338 | 0.521 | 0.386 | 0.333 | 0.465 | 0.229 | 0.226 | 0.287 | 0.263 | 0.269 | 0.217 | 0.24
3 | NCI-H1755 | 0.425 | 0.416 | 0.443 | 0.444 | 0.379 | 0.695 | 0.719 | 0.547 | 0.336 | 0.435 | 0.525 | 0.576 | 0.542 | 0.427 | 0.41 | 0.608 | 0.537 | 0.688 | 0.478 | 0.519
4 | NCI-H1793 | 0.243 | 0.215 | 0.271 | 0.215 | 0.225 | 0.537 | 0.519 | 0.48 | – | 0.406 | 0.338 | 0.311 | 0.24 | 0.191 | 0.15 | 0.256 | 0.189 | 0.219 | 0.226 | 0.15
5 | NCI-H1915 | 0.478 | 0.524 | 0.529 | 0.49 | 0.521 | 1.04 | 1.02 | 1.1 | 0.958 | 1.05 | 0.379 | 0.334 | 0.384 | 0.326 | 0.357 | 0.453 | 0.346 | 0.417 | 0.426 | 0.371
6 | NCI-H1944 | 0.293 | 0.313 | 0.295 | 0.285 | 0.211 | 0.6 | 0.518 | 0.6 | 0.421 | 0.51 | 0.216 | 0.193 | 0.19 | 0.154 | 0.153 | 0.238 | 0.242 | 0.217 | 0.206 | 0.189
7 | NCI-H1975 | 0.439 | 0.558 | 0.623 | 0.562 | 0.421 | 0.475 | 0.439 | 0.521 | 0.373 | 0.362 | 0.373 | 0.383 | 0.401 | 0.283 | 0.232 | 0.624 | 0.717 | 0.701 | 0.629 | 0.463
8 | NCI-H1993 | 0.503 | 0.579 | 0.638 | 0.495 | 0.484 | 0.701 | 0.653 | – | – | 0.767 | 0.49 | 0.488 | 0.471 | 0.524 | 0.449 | 0.446 | 0.609 | 0.55 | 0.527 | 0.562
9 | NCI-H2009 | 0.187 | 0.176 | 0.172 | 0.124 | 0.119 | 0.936 | 1.15 | 1.04 | 0.484 | 0.985 | 0.476 | 0.49 | 0.442 | 0.283 | 0.34 | 0.677 | 0.733 | 0.637 | 0.503 | 0.521
10 | NCI-H2023 | 0.265 | 0.328 | 0.405 | 0.277 | 0.226 | 0.389 | 0.427 | 0.449 | 0.267 | 0.32 | 0.384 | 0.368 | 0.379 | 0.261 | 0.29 | 0.367 | 0.336 | 0.286 | 0.289 | 0.279
11 | NCI-H2085 | 0.408 | 0.379 | 0.336 | 0.273 | 0.343 | 0.426 | 0.409 | 0.351 | 0.34 | 0.409 | 0.483 | 0.448 | 0.406 | 0.318 | 0.29 | 0.656 | 0.539 | 0.407 | 0.393 | 0.351
12 | NCI-H2087 | 0.235 | 0.223 | 0.209 | 0.185 | 0.207 | 0.953 | 1.06 | 1.17 | 0.819 | 0.972 | 0.44 | 0.442 | 0.474 | – | 0.385 | 0.282 | 0.268 | 0.221 | – | 0.205
13 | NCI-H2126 | 0.356 | 0.383 | 0.351 | 0.314 | 0.36 | 0.608 | 0.569 | 0.606 | 0.476 | 0.559 | 0.507 | 0.521 | 0.451 | 0.355 | 0.349 | 0.786 | 0.804 | 0.669 | 0.423 | 0.561
14 | NCI-H2170 | 0.36 | 0.387 | 0.387 | 0.384 | 0.347 | 0.662 | 0.666 | 0.713 | 0.56 | 0.681 | 0.418 | 0.432 | 0.421 | 0.386 | 0.36 | 0.678 | 0.681 | 0.615 | 0.643 | 0.47
15 | NCI-H2228 | 0.374 | 0.565 | 0.682 | 0.653 | 0.679 | 0.477 | 0.589 | 0.578 | 0.397 | 0.539 | – | 0.315 | 0.324 | 0.309 | 0.284 | – | 0.257 | 0.235 | 0.287 | 0.155
16 | NCI-H2347 | 0.35 | 0.389 | 0.406 | 0.394 | 0.389 | – | 0.743 | 0.891 | 0.514 | 0.719 | 0.198 | 0.277 | 0.235 | 0.243 | 0.221 | 0.321 | 0.388 | 0.364 | 0.357 | 0.371
17 | NCI-H2405 | 0.378 | 0.495 | 0.526 | 0.455 | 0.413 | 0.354 | – | 0.603 | 0.384 | 0.556 | 0.274 | – | 0.346 | 0.309 | 0.274 | 0.465 | – | 0.668 | 0.53 | 0.403
